≈ marks a conversion by molar mass, not a printed value.

In the assay the target is T1, tyrosinase from mushrooms.
T1 construct: gene PPO3; commercial native mushroom tyrosinase (Sigma-Aldrich), isoenzyme mixture
Description: colorimetric diphenolase assay, absorbance at […] nm. Format: biochemical. As to conditions: L-DOPA substrate.

Molecule `O=C(O)CCCCCCCC(=O)O` [azelaic acid] returned an IC50 of 1470 µg/mL (≈ 7.81 mM).

What is called IC50 is the concentration that inhibits the measured activity by half. Low values mean higher potency, high ones lower potency.

(Values after publication PMC11675283, “Anticholinesterase Activity and Bioactive Compound Profiling of Six Hop (Humulus lupulus L.) Varieties” (Foods, 2024).)
